Assay results as given in patent publication US12404289B2 (Gilead Sciences, Inc., priority 2020, dated 2025).
Like-named read-outs stand apart in the source and are kept apart here.

Key:
Type in all cases: cell-based
[1] = test system: Respiratory syncytial virus (RSV) strain A2; experiment: RSV antiviral assay (HEp-2, 96 well); conditions: Table 1
[2] = test system: SARS-CoV-2; experiment: SARS-CoV-2 antiviral assay (A549-hACE2, Nano luciferase); conditions: A549-hACE2 cells, SARS-CoV2-Nano, MOI 0.025, 48 h
[3] = CC50 assay (cytopathology in HEp-2 cells); conditions: human, HEp-2 cells, 4 days, CellTiter-Glo; Table 1; read-out: RSV CC50
Protocol: (§1) The cytopathology of compounds in HEp-2 cells is determined in the following manner. HEp-2 cells are suspended in DMEM+GlutaMAX (supplemented with 10% FBS and 1% Penicillin/Streptomycin) and seeded into 96 well plates (3×10^3/well). After a 4-hour incubation at 37° C.+5% CO2, three-fold serial dilutions of compounds are added to each well using an HP D300e digital dispenser. The cells are then incubated for 4 days at 37° C. and 5% CO2. The final volume in each well is 200 μL. Untreated wells are included as controls for 100% cell viability, while compounds treated with 5 uM puromycin are included as controls for 0% viability. Following the incubation, 100 μL of culture supernatant is removed from each well and replaced with 100 μL of CellTiter-Glo reagent (Promega, Madison, WI, Cat #G7573). The plates are then rocked for 2 minutes followed by a 10-minute incubation at 25° C. Compound-induced cytopathic effect is then assessed by measuring luminescence signal using and Envision plate reader. Values are normalized to the untreated DMSO and puromycin-treated controls (as 100% and 0% viability, respectively) and data is fit using non-linear regression analysis using XLfit4. The CC50 value for each compound is then determined as the concentration reducing cell viability by 50%.

[4] = test system: Respiratory syncytial virus (RSV) strain A2; experiment: Hep-2 RSV2 384-well assay (EC50-HEP2-384); conditions: HEp-2 cells, RSV A2, MOI=4, 4 days, Table 1
[5] = test system: Respiratory syncytial virus recombinant with luciferase (RSV-Luc5); experiment: microbe, parasite or virus in culture; conditions: human respiratory syncytial virus, HEp-2, 72 h, read-out: EC50 RSVFluc-Hep2 384, HEp-2 cells, RSV-Luc5, MOI=0.5, 3 days, 384 well, One-Glo; Table 1
[6] = test system: Recombinant respiratory syncytial virus expressing the firefly luciferase protein (RSV-Fluc); experiment: microbe, parasite or virus in culture; conditions: Table 4
[7] = test system: HEp-2 cells; experiment: CC50 assay (cytopathology in HEp-2 cells); conditions: HEp-2 cells, 4 days, CellTiter-Glo; Table 1; read-out: RSV CC50
Protocol: as §1

[8] = human respiratory syncytial virus, HEp-2, 96 h, read-out: EC50-RSV-HEP-2-96, HEp-2 cells, RSV A2, MOI=4, 4 days, 96 well, CellTiter-Glo
[9] = Severe acute respiratory syndrome coronavirus 2, 48 h, Table 1, read-out: SARS-CoV-2 EC50
[10] = Severe acute respiratory syndrome coronavirus 2, 48 h, Table 4, read-out: EC50 SARS CoV2
[11] = human respiratory syncytial virus, HEp-2, 96 h
[12] = human respiratory syncytial virus, NHBE, 72 h, read-out: EC50 RSVFluc NHBE 96, NHBE cells, RSV-Fluc, MOI of 0.1, three days, 96 well
[13] = read-out: EC50 RSVFluc NHBE 96, NHBE cells, RSV-Fluc, MOI of 0.1, three days, 96 well

Compound: CCC(CC)COC(=O)[C@H](C)NP(=O)(OC[C@H]1O[C@@](C#N)(c2ccc3c(N)ncnn23)[C@H](O)[C@@H]1O)Oc1ccc(C(C)(C)C)cc1 (mixture of isomers) [Example 13, 2-ethylbutyl (2S)-2-[[[(2R,5R)-5-(4-aminopyrrolo[2,1-f][1,2,4]triazin-7-yl)-5-cyano-3,4-dihydroxy-tetrahydrofuran-2-yl]methoxy-(4-tert-butylphenoxy)phosphoryl]amino]propanoate]
- EC50 [1, 8]: 34.5 nM
- EC50 [2, 9]: 88.9 nM
- EC50 [2, 10]: 319 nM
- CC50 at 4 days [3]: 3800 nM
- EC50 [4, 11]: 58.8 nM
- EC50 [5]: 20.1 nM
- EC50 [6, 12]: 2.92 nM

Compound: C[C@H](NP(=O)(OC[C@H]1O[C@@](C#N)(c2ccc3c(N)ncnn23)[C@H](O)[C@@H]1O)Oc1ccc(C(C)(C)C)cc1)C(=O)OC1CC2(CCC2)C1 (stereo partly drawn) [Example 29, Spiro[3.3]heptan-2-yl (2S)-2-[[[(2R,3S,4R,5R)-5-(4-aminopyrrolo[2,1-f][1,2,4]triazin-7-yl)-5-cyano-3,4-dihydroxy-tetrahydrofuran-2-yl]methoxy-(4-tert-butylphenoxy)phosphoryl]amino]propanoate]
- EC50 [1, 8]: 10.7 nM
- EC50 ([2]; Table 4, read-out: EC50 SARS CoV2): 123 nM
- EC50 [2, 9]: 65.1 nM
- CC50 at 4 days [3]: 2650 nM
- EC50 [4, 11]: 62.2 nM
- EC50 [5]: 36.9 nM
- EC50 [6, 12]: 3.93 nM

Compound: CCC(=O)O[C@H]1[C@@H](OC(=O)CC)[C@](C#N)(c2ccc3c(N)ncnn23)O[C@@H]1CO[P@@](=O)(N[C@@H](C)C(=O)OCC(CC)CC)Oc1ccccc1 [Example 3, (2R,3R,4R,5R)-2-(4-aminopyrrolo[2,1-f][1,2,4]triazin-7-yl)-2-cyano-5-((((S)—(((S)-1-(2-ethylbutoxy)-1-oxopropan-2-yl)amino)(phenoxy)phosphoryl)oxy)methyl) tetrahydrofuran-3,4-diyl Dipropionate]
- EC50 [1, 8]: 44.1 nM
- EC50 [2, 9]: 113 nM
- EC50 [2, 10]: 129 nM
- CC50 at 4 days [3]: 5820 nM
- EC50 [5]: 18.3 nM
- EC50 [6, 12]: 5.55 nM

Compound: CCC(CC)COC(=O)[C@H](C)N[P@](=O)(OC[C@H]1O[C@@](C#N)(c2ccc3c(N)ncnn23)[C@H](OC(=O)C(C)C)[C@@H]1OC(=O)C(C)C)Oc1ccccc1 [Example 1, (2R,3R,4R,5R)-2-(4-aminopyrrolo[2,1-f][1,2,4]triazin-7-yl)-2-cyano-5-((((S)—(((S)-1-(2-ethylbutoxy)-1-oxopropan-2-yl)amino)(phenoxy)phosphoryl)oxy)methyl) tetrahydrofuran-3,4-diyl bis(2-methylpropanoate)]
- EC50 [1, 8]: 122 nM
- EC50 [2, 10]: 338 nM
- CC50 at 4 days [3]: 5490 nM
- EC50 [6, 12]: 6.56 nM

Compound: CC(=O)O[C@H]1[C@@H](OC(C)=O)[C@](C#N)(c2ccc3c(N)ncnn23)O[C@@H]1COP(=O)(N[C@@H](C)C(=O)OC1CC2(CCC2)C1)Oc1ccc(C(C)(C)C)cc1 (stereo partly drawn) [Example 30, Spiro[3.3]heptan-2-yl (2S)-2-[[(4-tert-butylphenoxy)-[[(2R,3R,4R,5R)-3,4-diacetoxy-5-(4-aminopyrrolo[2,1-f][1,2,4]triazin-7-yl)-5-cyano-tetrahydrofuran-2-yl]methoxy]phosphoryl]amino]propanoate]
- EC50 [1, 8]: 7.3 nM
- EC50 [2, 10]: 202 nM
- CC50 at 4 days [3]: 2310 nM
- EC50 [4, 11]: 39.7 nM
- EC50 [5]: 27.1 nM
- EC50 [6, 13]: 4.49 nM

Compound: CCOC(=O)[C@H](C)NP(=O)(OC[C@H]1O[C@@](C#N)(c2ccc3c(N)ncnn23)[C@H](OC(=O)C(C)C)[C@@H]1OC(=O)C(C)C)Oc1ccc(C(C)(C)C)cc1 (stereo partly drawn) [Example 18, (2R,3R,4R,5R)-2-(4-aminopyrrolo[2,1-f][1,2,4]triazin-7-yl)-5-((((4-(tert-butyl)phenoxy)(((S)-1-ethoxy-1-oxopropan-2-yl)amino)phosphoryl)oxy)methyl)-2-cyanotetrahydrofuran-3,4-diyl bis(2-methylpropanoate)]
- EC50 [1, 8]: 7.75 nM
- EC50 [2, 10]: 210 nM
- CC50 at 4 days [3]: 2620 nM
- EC50 [4, 11]: 83.4 nM
- EC50 [6, 12]: 6.69 nM

Compound: CC(C)C(=O)O[C@H]1[C@@H](OC(=O)C(C)C)[C@](C#N)(c2ccc3c(N)ncnn23)O[C@@H]1COP(=O)(N[C@@H](C)C(=O)OC1CCC1)Oc1ccccc1 (stereo partly drawn) [Example 21, (2R,3R,4R,5R)-2-(4-Aminopyrrolo[2,1-f][1,2,4]triazin-7-yl)-2-cyano-5-((((((S)-1-cyclobutoxy-1-oxopropan-2-yl)amino)(phenoxy)phosphoryl)oxy)methyl) tetrahydrofuran-3,4-diyl bis(2-methylpropanoate)]
- EC50 [1, 8]: 19.8 nM
- EC50 [2, 9]: 123 nM
- EC50 [2, 10]: 234 nM
- CC50 at 4 days [3]: 3110 nM
- EC50 [4]: 58.8 nM
- EC50 [5]: 29.4 nM
- EC50 [6, 13]: 5.36 nM

Compound: CCC(CC)COC(=O)[C@H](C)NP(=O)(OC[C@H]1O[C@@](C#N)(c2ccc3c(N)ncnn23)[C@H](O)[C@@H]1O)Oc1cc(C)ccc1C(C)C (single isomer, unassigned) [Example 26a]
- EC50 [1, 8]: 1160 nM
- CC50 [7]: > 45000 nM

Compound: CCC(CC)COC(=O)[C@H](C)NP(=O)(OC[C@H]1O[C@@](C#N)(c2ccc3c(N)ncnn23)[C@H](O)[C@@H]1O)Oc1cc(C)ccc1C(C)C (single isomer, unassigned) [Example 26b]
- EC50 ([1]; read-out: EC50-RSV-HEP-2-96, HEp-2 cells, RSV A2, MOI=4, 4 days, 96 well, CellTiter-Glo): 603 nM
- CC50 [7]: 2400 nM

Compound: CCC(CC)COC(=O)[C@H](C)N[P@](=O)(OC[C@H]1O[C@@](C#N)(c2ccc3c(=N)n(COP(=O)(O)O)cnn23)[C@H](O)[C@@H]1O)Oc1ccccc1 [Example 28, 2-Ethylbutyl ((S)-(((2R,3S,4R,5R)-5-cyano-3,4-dihydroxy-5-(4-imino-3-((phosphonooxy)methyl)-3,4-dihydropyrrolo[2,1-f][1,2,4]triazin-7-yl)tetrahydrofuran-2-yl)methoxy)(phenoxy)phosphoryl)-L-alaninate]
- EC50 [1, 8]: 31 nM
- EC50 [2, 10]: 1620 nM
- CC50 at 4 days [3]: 7450 nM
- EC50 [5]: 21.5 nM
- EC50 [6, 12]: 35 nM
